This passage reports IC50 results from patent US20220169639A1 (priority 2018, published 2022).

The structures appear in SMILES notation.

Experiment [1] relates to HBV (HBsAg) in HBV-infected PHH. The experiment is described as follows: Cryopreserved primary human hepatocytes (PHH) HBV infection assay, extracellular HBsAg (CLIA). The class given is cell-based. Particulars: Hepatitis B virus, Hepatocyte, 216 h, read-out: HBsAg IC50. As for the experimental part:
This assay is used to confirm the anti-HBV effect of the compounds in HBV PHH infection assay. Cryopreserved PHH (BioreclamationIVT, Lot YJM) was thawed at 37° C. and gently transferred into pre-warmed InVitroGRO HT medium (BioreclamationIVT, Cat. S03317). The mixture was centrifuged at 70 relative centrifugal force (RCF) for 3 minutes at RT, and the supernatant was discarded. Pre-warmed InVitroGRO CP medium (BioreclamationIVT, Cat #S03316) was added to the cell pellet to gently re-suspend cells. The cells were seeded at the density of 5.8×10^4 cells per well to collagen I coated 96-well plate (Gibco, Cat. A1142803) with the InVitroGRO CP medium. All plates were incubated at 37° C. with 5% CO2 and 85% humidity.
At 20 hours after plating, the medium was changed to PHH culture medium (Dulbecco's Modified Eagle Medium (DMEM)/F12 (1:1) (Gibco, Cat. 11320-033), 10% fetal bovine serum (Gibco Cat. 10099141), 100 U/mL penicillin, 100 μg/mL streptomycin (Gibco, Cat. 151401-122), 5 ng/mL human epidermal growth factor (Invitrogen Cat. PHG0311L), 20 ng/mL dexamethasone (Sigma, Cat. D4902) and 250 ng/mL human recombinant insulin (Gibco, Cat. 12585-014)). And the cells were incubated at 37° C. with 5% CO2 and 85% humidity for 4 hours. The medium was then changed to pre-warmed PHH culture medium containing 4% polyethylene glycol (PEG) MW8000 (Sigma, Cat. P1458-50ML) and 1% DMSO (Sigma, Cat. D2650). 5.8×10^6 genomic equivalents of HBV were added into the medium.
At 24 hours post-infection, the cells were gently washed with PBS and refreshed with PHH culture medium supplemented with 1% DMSO, and 0.25 mg/mL Matrix gel (Corning, Cat. 356237) at 200 μL per well. All plates were immediately placed in at 37° C. CO2 incubator. 24 hours later, serial dilutions of compounds made with DMSO were further diluted with the same culture medium (PHH culture medium supplemented with 1% DMSO and 0.25 mg/mL Matrix gel as described above) before they were added to the cells to reach desired final compound concentrations and 1% DMSO concentration. The medium containing the compounds were refreshed every three days.
At 9 days post-compound treatment, extracellular HBsAg level were measured with Chemiluminescence Immuno Assay (CLIA) kit (Autobio, HBsAg Quantitative CLIA). Extracellular HBV DNA was extracted by MagNA Pure 96 system (Roche) and then determined
HBsAg IC50 and HBV DNA IC50 values were derived from the dose-response curve using 4 parameter logistic curve fit method. The compounds of formula (I) have HBsAg IC50<20 μM, particularly <1 μM; and HBV DNA IC50<50 μM. Results of Cryopreserved PHH assay are given in TableBIO2.

The subject of experiment [2] is HBeAg (surrogate marker for cccDNA) in HepDES19 cells. Briefly: Engineered HepDES19 primary screen assay (HBeAg ELISA). As to conditions: Hepatitis B virus, 120 h, HBeAg in culture supernatant, 5 days incubation, read-out: IC50 (HepDES19 primary screen assay, inhibition of extracellular HBeAg level). The class given is cell-based, HBV. The gist of the method:
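HepDES19 cells pre-induced by Tet withdrawal for 8 days, frozen, then seeded and dosed after 24 h with half-log compound dilutions (1% DMSO final). After 5 days at 37 °C, HBeAg measured by ELISA and viability by CCK-8; IC50 from 4-parameter logistic fit.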
Background: In an ELISA, binding on a coated surface is turned into a signal by an enzyme label.

Consider `CS(=O)(=O)NC(=O)C1CCCN1CCOc1cc(C(F)(F)F)ccc1-c1cc(=O)c2cccc(Cl)c2o1` (stereo not drawn) [Example 073, 1-[2-[2-(8-chloro-4-oxo-chromen-2-yl)-5-(trifluoromethyl)phenoxy]ethyl]-N-methylsulfonyl-pyrrolidine-2-carboxamide], for which the results for the concentration for half-maximal inhibition (IC50) in experiment [1] and in experiment [2] were 7.47 µM and 0.14 µM, respectively.

Take `O=C1CCCN1CCOc1cc(Br)ccc1-c1cc(=O)c2cccc(Cl)c2o1` [Example 075, 1-[2-[5-bromo-2-(8-chloro-4-oxo-chromen-2-yl)phenoxy]ethyl]pyrrolidin-2-one]: the values for the IC50 in experiment [1] and in experiment [2] were 3.57 µM and 0.11 µM, respectively.

For `CN(C1CCN(CCOc2cc(Br)ccc2-c2cc(=O)c3cccc(Cl)c3o2)C1)S(C)(=O)=O` (stereo not drawn) [Example 076, N-[1-[2-[5-bromo-2-(8-chloro-4-oxo-chromen-2-yl)phenoxy]ethyl]pyrrolidin-3-yl]-N-methyl-methanesulfonamide], the IC50 in experiment [1] amounted to 7.95 µM; in experiment [2] it was 1.64 µM.

Turning to `O=c1cc(-c2ccc(C(F)(F)F)cc2OCCCN2C[C@@H](O)[C@@H](O)C2)oc2c(Cl)cccc12` [Example 077, 8-chloro-2-[2-[3-[(3R,4S)-3,4-dihydroxypyrrolidin-1-yl]propoxy]-4-(trifluoromethyl)phenyl]chromen-4-one], the IC50 was 2.18 µM in experiment [1] and 0.05 µM in experiment [2].

As to `NS(=O)(=O)CCNCCCOc1cc(C(F)(F)F)ccc1-c1cc(=O)c2cccc(Cl)c2o1` [Example 080, 2-[3-[2-(8-chloro-4-oxo-chromen-2-yl)-5-(trifluoromethyl)phenoxy]propylamino]ethanesulfonamide], the IC50 was 4.02 µM in experiment [1] and 3.14 µM in experiment [2].

For the compound `CC(=O)N1CCN(CCOc2cc(Br)ccc2-c2cc(=O)c3cccc(Cl)c3o2)CC1` [Example 082], the IC50 in experiment [1] turned out to be 7.56 µM; in experiment [2], 0.24 µM.

Turning to `CS(=O)(=O)C1CCN(CCOc2cc(Br)ccc2-c2cc(=O)c3cccc(Cl)c3o2)C1` (stereo not drawn) [Example 084], the IC50 turned out to be 3.48 µM in experiment [1] and 0.59 µM in experiment [2].

For `O=c1cc(-c2ccc(Br)cc2OCCN2CCC(c3nnn[nH]3)CC2)oc2c(Cl)cccc12` [Example 087], the IC50 turned out to be 7.84 µM in experiment [1] and 5.24 µM in experiment [2].

As to `CS(=O)(=O)C1CCN(CCCOc2cc(C(F)(F)F)ccc2-c2cc(=O)c3cccc(Cl)c3o2)C1` (stereo not drawn) [Example 088, 8-chloro-2-[2-[3-(3-methylsulfonylpyrrolidin-1-yl)propoxy]-4-(trifluoromethyl)phenyl]chromen-4-one], the concentration for half-maximal inhibition (IC50) is 7.8 µM in experiment [1] and 0.27 µM in experiment [2].

With `O=c1cc(-c2ccc(Br)cc2OCCN2CCS(=O)(=O)CC2)oc2c(Cl)cccc12` [Example 089, 2-[4-bromo-2-[2-(1,1-dioxo-1,4-thiazinan-4-yl)ethoxy]phenyl]-8-chloro-chromen-4-one], the IC50 was 5.81 µM in experiment [1] and 1.94 µM in experiment [2].

Regarding `C[S+]([O-])C1CCN(CCOc2cc(C(F)(F)F)ccc2-c2cc(=O)c3cccc(Cl)c3o2)CC1` (stereo not drawn) [Example 093, 8-chloro-2-[2-[2-(4-methylsulfinyl-1-piperidyl)ethoxy]-4-(trifluoromethyl)phenyl]chromen-4-one], the results for the IC50 in experiment [1] and in experiment [2] were 6.13 µM and 5.98 µM, respectively.

For the compound `CC(=O)NCCCOc1cc(C(F)(F)F)ccc1-c1cc(=O)c2cccc(Cl)c2o1` [Example 098], the IC50 came to 6.34 µM in experiment [1] and 4.34 µM in experiment [2].

As to `CCOC(=O)C(=O)NCCOc1cc(C(F)(F)F)ccc1-c1cc(=O)c2cccc(Cl)c2o1` [Example 101, ethyl 2-[2-[2-(8-chloro-4-oxo-chromen-2-yl)-5-(trifluoromethyl)phenoxy]ethylamino]-2-oxo-acetate], the IC50 was 1.41 µM in experiment [1] and 1.08 µM in experiment [2].

On to `COc1cc(Cl)c2oc(-c3ccc(C(F)(F)F)cc3OCCCNC(=O)C(=O)O)cc(=O)c2c1` [Example 116], for which the IC50 in experiment [1] amounted to 3.41 µM; in experiment [2], 1.8 µM.

For `O=C(O)C(=O)NCCCOc1cc(C(F)(F)F)ccc1-c1cc(=O)c2cccc(Cl)c2o1` [Example 117], the values for the IC50 in experiment [1] and in experiment [2] were 1.9 µM and 2.16 µM, respectively.

Consider `O=C(O)C(=O)NCCOc1cc(C(F)(F)F)ccc1-c1cc(=O)c2cccc(Cl)c2o1` [Example 119, 2-[2-[2-(8-chloro-4-oxo-chromen-2-yl)-5-(trifluoromethyl)phenoxy]ethylamino]-2-oxo-acetic acid], for which the figures for the IC50 in experiment [1] and in experiment [2] were 0.67 µM and 3.43 µM, respectively.

Regarding `O=C(O)CNCCCOc1cc(C(F)(F)F)ccc1-c1cc(=O)c2cccc(Cl)c2o1` [Example 125, 2-[3-[2-(8-chloro-4-oxo-chromen-2-yl)-5-(trifluoromethyl)phenoxy]propylamino]acetic acid], the IC50 came to 3.19 µM in experiment [1] and 2.03 µM in experiment [2].

As for `O=C(O)C(=O)N1CC[C@H](Oc2cc(C(F)(F)F)ccc2-c2cc(=O)c3cccc(Cl)c3o2)C1` [Example 126, 2-oxo-2-[(3S)-3-[2-(8-chloro-4-oxo-chromen-2-yl)-5-(trifluoromethyl)phenoxy]pyrrolidin-1-yl]acetic acid], the IC50 in experiment [1] worked out at 4.21 µM; in experiment [2], 0.91 µM.

For the compound `O=C(O)C1CC(N2CCC(Oc3cc(Br)ccc3-c3cc(=O)c4cccc(Cl)c4o3)CC2)C1` (stereo not drawn) [Example 131], the IC50 in experiment [1] was 5.05 µM; in experiment [2], 5.86 µM.

Regarding `O=C(O)C(=O)NC1CC(Oc2cc(C(F)(F)F)ccc2-c2cc(=O)c3cccc(Cl)c3o2)C1` (stereo not drawn) [Example 133], the concentration for half-maximal inhibition (IC50) in experiment [1] came out at 2.8 µM; in experiment [2], 4.57 µM.

As to `NC(=O)C(=O)NCCOc1cc(C(F)(F)F)ccc1-c1cc(=O)c2cccc(Cl)c2o1` [Example 146, N′-[2-[2-(8-chloro-4-oxo-chromen-2-yl)-5-(trifluoromethyl)phenoxy]ethyl]oxamide], the values for the IC50 in experiment [1] and in experiment [2] were 7.08 µM and 0.33 µM, respectively.

Consider `NC(=O)NCCCOc1cc(C(F)(F)F)ccc1-c1cc(=O)c2cccc(Cl)c2o1` [Example 157, 3-[2-(8-chloro-4-oxo-chromen-2-yl)-5-(trifluoromethyl)phenoxy]propylurea], for which the figures for the IC50 in experiment [1] and in experiment [2] were 3.4 µM and 4.15 µM, respectively.

For `NS(=O)(=O)NCCCOc1cc(C(F)(F)F)ccc1-c1cc(=O)c2cccc(Cl)c2o1` [Example 160, 8-chloro-4-oxo-2-[2-[3-(sulfamoylamino)propoxy]-4-(trifluoromethyl)phenyl]chromene], the IC50 came out at 10 µM in experiment [1] and 2.43 µM in experiment [2].

As to `O=C(O)[C@H]1CCN(CC(O)COc2cc(Br)ccc2-c2cc(=O)c3cccc(Cl)c3o2)C1` (stereo partly drawn) [Example 164, (3S)-1-[3-[5-bromo-2-(8-chloro-4-oxo-chromen-2-yl)phenoxy]-2-hydroxy-propyl]pyrrolidine-3-carboxylic acid], the values for the IC50 in experiment [1] and in experiment [2] were 9.66 µM and 2.96 µM, respectively.

`O=C(O)[C@@H]1CCN(CC(O)COc2cc(Br)ccc2-c2cc(=O)c3cccc(Cl)c3o2)C1` (stereo partly drawn) [Example 165, (3R)-1-[3-[5-bromo-2-(8-chloro-4-oxo-chromen-2-yl)phenoxy]-2-hydroxy-propyl]pyrrolidine-3-carboxylic acid]: the figures for the IC50 in experiment [1] and in experiment [2] were 9.98 µM and 3.19 µM, respectively.

In the case of `O=C(O)C(=O)NCC(O)COc1cc(C(F)(F)F)ccc1-c1cc(=O)c2cccc(Cl)c2o1` (stereo not drawn) [Example 166, 2-[[3-[2-(8-chloro-4-oxo-chromen-2-yl)-5-(trifluoromethyl)phenoxy]-2-hydroxy-propyl]amino]-2-oxo-acetic acid], the half-maximal inhibitory concentration (IC50) came to 3.03 µM in experiment [1] and 1.57 µM in experiment [2].

As for `NC(=O)CNCCOc1cc(C(F)(F)F)ccc1-c1cc(=O)c2cccc(Cl)c2o1` [Example 167, 2-[2-[2-(8-chloro-4-oxo-chromen-2-yl)-5-(trifluoromethyl)phenoxy]ethylamino]acetamide], the half-maximal inhibitory concentration (IC50) in experiment [1] worked out at 7.94 µM; in experiment [2], 3.3 µM.

As usually defined, the IC50 is the concentration at which inhibition is half-maximal.
